Values quoted from earlier work, collected in patent US11345964B2, “BCR-ABL truncation mutations” (Quest Diagnostics Investments LLC, priority 2009, dated 2022).
Counter-ions that a name gives are not always drawn. Like-named read-outs stand apart in the source and are kept apart here.

Test system: patients with myeloproliferative diseases
Conditions: imatinib therapy

In the case of `Cc1ccc(NC(=O)c2ccc(CN3CCN(C)CC3)cc2)cc1Nc1nccc(-c2cccnc2)n1` [imatinib, imatinib mesylate], the “Primary resistance (failure to achieve any hematologic response) rate” value (accelerated phase) is given as 9%, the “Secondary resistance (hematologic recurrence) rate” value (accelerated phase) is given as 32% and the “Primary resistance (failure to achieve any hematologic response) rate” value (blast phase) is given as 51%. For the same compound, the “Secondary resistance (hematologic recurrence) rate” value (blast phase) was 41%, the “Primary resistance (failure to achieve any hematologic response) rate” value (chronic phase) was 3% and the “Secondary resistance (hematologic recurrence) rate” value (chronic phase) was 22%.
